Laboratory results: patent publication US11773421B2, “Method for producing fructose-6-phosphate from dihydroxy acetone phosphate and glyceraldehyde-3-phosphate” (Global Bioenergies, priority 2018, dated 2023)

Columns and labels:
FsaA A129S = target: T1, FsaA A129S (Escherichia coli, UniProt P78055, A129S); test: Impact of AMP concentration on fructose-6-phosphate aldolase activity of FsaA A129S; assay type: biochemical, E. coli; conditions: AMP several concentrations; 200 mM DHA, 3 mM D,L-G3P, 0.4 mg/ml FsaA A129S, 30° C., NADPH formation at 340 nm; FIG. 2
T1 construct: made in house; host or cells: E. coli BL21(DE3), ASKA collection plasmid
T1 sequence (P78055 whole entry A129S): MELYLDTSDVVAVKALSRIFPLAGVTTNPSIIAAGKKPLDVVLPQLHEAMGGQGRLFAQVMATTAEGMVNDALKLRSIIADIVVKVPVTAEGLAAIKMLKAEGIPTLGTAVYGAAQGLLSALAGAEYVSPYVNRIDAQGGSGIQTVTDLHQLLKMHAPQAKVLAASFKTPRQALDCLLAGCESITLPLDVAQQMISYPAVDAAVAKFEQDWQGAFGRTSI
Method: (§1) A series of tests was conducted in order to determine if AMP has an inhibitory effect on the enzymatic activity of fructose-6-phosphate aldolase and/or fructose bisphosphatase. […] Chem Cat Chem, Wiley, 7:1871-1879 (2015).

fructose bisphosphatase = fructose bisphosphatase (Escherichia coli, UniProt P0A993); test: Impact of AMP concentration on fructose bisphosphatase activity; assay type: biochemical; conditions: AMP several concentrations; 1 mM F1,6bisP, 0.2 mg/ml FBP enzyme, 30° C., NADPH formation at 340 nm; FIG. 1
fructose bisphosphatase, sequence (P0A993 whole entry): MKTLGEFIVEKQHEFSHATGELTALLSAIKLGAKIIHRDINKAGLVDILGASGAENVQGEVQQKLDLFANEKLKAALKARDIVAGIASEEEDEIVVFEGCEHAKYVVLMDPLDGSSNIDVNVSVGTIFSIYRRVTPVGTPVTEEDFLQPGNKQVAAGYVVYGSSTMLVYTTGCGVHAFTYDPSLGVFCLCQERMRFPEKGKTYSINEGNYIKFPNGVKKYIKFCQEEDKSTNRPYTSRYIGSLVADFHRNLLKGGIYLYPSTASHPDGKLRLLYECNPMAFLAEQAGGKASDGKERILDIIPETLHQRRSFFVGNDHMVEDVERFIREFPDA
Method: as §1

## Nc1ncnc2c1ncn2[C@@H]1O[C@H](COP(=O)(O)O)[C@@H](O)[C@H]1O [AMP]
FsaA A129S
  inhibitory effect of AMP on fructose-6-phosphate aldolase activity: No inhibitory effect
Fructose bisphosphatase
  impact of AMP on fructose bisphosphatase activity: strong inhibitory impact
